System: solid malignant tumors
Assay: GEN1046 Phase I dose escalation (NCT03917381), response by RECIST v1.1
Type: in vivo, human
Settings: for CR (Complete Response), patients / Confirmed CR (Complete Response), patients / Confirmed Disease Control (PR + PR + SD) Rate, % / Confirmed Disease Control (PR + PR + SD) Rate, patients / Confirmed NE (Not Evaluable), % of patients / Confirmed NE (Not Evaluable), patients / Confirmed Objective Response (CR + PR) Rate, patients / Confirmed PD (Progressive Disease), % of patients / Confirmed PD (Progressive Disease), patients / Confirmed PR (Partial Response), patients / Confirmed SD (Stable Disease), % of patients / Confirmed SD (Stable Disease), patients / Disease Control (PR + PR + SD) Rate, % / Disease Control (PR + PR + SD) Rate, patients / NE (Not Evaluable), % of patients / NE (Not Evaluable), patients / Objective Response (CR + PR) Rate, patients / PD (Progressive Disease), % of patients / PD (Progressive Disease), patients / PR (Partial Response), patients / Confirmed Objective Response (CR + PR) Rate, % / Confirmed PR (Partial Response), % of patients / Objective Response (CR + PR) Rate, % / PR (Partial Response), % of patients: Oct. 12, 2020; for BOR Complete Response, (percent) / BOR Complete Response, patients / BOR Partial Response, (percent) / BOR Partial Response, patients / BOR Progressive Disease, (percent) / BOR Progressive Disease, patients / BOR Stable Disease, (percent) / BOR Stable Disease, patients: 3 Feb. 2020
Excerpt: The resistance to, failure to respond to and/or relapse from treatment with a binding agent of the invention and/or other therapeutic agent(s) may be determined according to the Response Evaluation Criteria In Solid Tumors; version 1.1 (RECIST Criteria v1.1).
The “best overall response” is the best response recorded from the start of the treatment until disease progression/recurrence (the smallest measurements recorded since the treatment started will be used as the reference for PD). Subjects with CR or PR are considered to be objective response. Subjects with CR, PR or SD are considered to be in disease control. Subjects with NE are counted as non-responders. […]
Clinical trial on GCT1046-01 (ClinicalTrials.gov Identifier: NCT03917381) was designed as a two-part trial, including an ongoing dose escalation part and a planned expansion part.
The trial consists of 2 parts; a First-in-Human (FIH) dose escalation (Phase I) and an expansion (Phase 11a).
For dose escalation, subject was required to be a man or […] and was required to have measurable disease according to RECIST 1.1.

GEN1046: PD-L1×4-1BB bispecific antibody: PD-L1-547-FEAL combined with CD137-009-HC7LC2-FEAR (SEQ ID NOs: 1, 5, 21, 19; 8, 12, 22, 20)
66.7%: Confirmed Disease Control (PR + PR + SD) Rate, % (100 mg (N 6)) | Disease Control (PR + PR + SD) Rate, % (100 mg (N 6))
7: Confirmed SD (Stable Disease), patients (80 mg (N 9))
2^1: BOR Partial Response, patients (80 mg (n = 8), uPR)
16.7%: Confirmed Objective Response (CR + PR) Rate, % (100 mg (N 6)) | Confirmed PR (Partial Response), % of patients (100 mg (N 6)) | Objective Response (CR + PR) Rate, % (100 mg (N 6)) | PR (Partial Response), % of patients (100 mg (N 6)) | Confirmed NE (Not Evaluable), % of patients (140 mg (N 6)) | NE (Not Evaluable), % of patients (140 mg (N 6))
60.0%: Confirmed Disease Control (PR + PR + SD) Rate, % (50 mg (N 5)) | Confirmed SD (Stable Disease), % of patients (50 mg (N 5)) | Disease Control (PR + PR + SD) Rate, % (50 mg (N 5))
(40): BOR Progressive Disease, (percent) (50 mg (n = 5))
11.1%: Confirmed Objective Response (CR + PR) Rate, % (80 mg (N 9)) | Confirmed PD (Progressive Disease), % of patients (80 mg (N 9)) | Confirmed PR (Partial Response), % of patients (80 mg (N 9)) | PD (Progressive Disease), % of patients (80 mg (N 9))
40.0%: Confirmed PD (Progressive Disease), % of patients (50 mg (N 5)) | PD (Progressive Disease), % of patients (50 mg (N 5))
(62.5): BOR Stable Disease, (percent) (80 mg (n = 8))
(60): BOR Stable Disease, (percent) (50 mg (n = 5))
33.3%: Confirmed NE (Not Evaluable), % of patients (100 mg (N 6)) | NE (Not Evaluable), % of patients (100 mg (N 6)) | Confirmed PD (Progressive Disease), % of patients (140 mg (N 6)) | PD (Progressive Disease), % of patients (140 mg (N 6))
5: BOR Stable Disease, patients (80 mg (n = 8))
88.9%: Confirmed Disease Control (PR + PR + SD) Rate, % (80 mg (N 9)) | Disease Control (PR + PR + SD) Rate, % (80 mg (N 9))
22.2%: Objective Response (CR + PR) Rate, % (80 mg (N 9)) | PR (Partial Response), % of patients (80 mg (N 9))
(25): BOR Partial Response, (percent) (80 mg (n = 8), uPR)
0: CR (Complete Response), patients (25 mg (N 4)) | Confirmed CR (Complete Response), patients (25 mg (N 4)) | Confirmed Objective Response (CR + PR) Rate, patients (25 mg (N 4)) | Confirmed PR (Partial Response), patients (25 mg (N 4)) | Objective Response (CR + PR) Rate, patients (25 mg (N 4)) | PR (Partial Response), patients (25 mg (N 4)) | BOR Complete Response, patients (25 mg (n = 2)) | BOR Partial Response, patients (25 mg (n = 2)) | BOR Stable Disease, patients (25 mg (n = 2)) | CR (Complete Response), patients (50 mg (N 5)) | Confirmed CR (Complete Response), patients (50 mg (N 5)) | Confirmed NE (Not Evaluable), patients (50 mg (N 5)) | Confirmed Objective Response (CR + PR) Rate, patients (50 mg (N 5)) | Confirmed PR (Partial Response), patients (50 mg (N 5)) | NE (Not Evaluable), patients (50 mg (N 5)) | Objective Response (CR + PR) Rate, patients (50 mg (N 5)) | PR (Partial Response), patients (50 mg (N 5)) | BOR Complete Response, patients (50 mg (n = 5)) | BOR Partial Response, patients (50 mg (n = 5)) | CR (Complete Response), patients (80 mg (N 9)) | Confirmed CR (Complete Response), patients (80 mg (N 9)) | Confirmed NE (Not Evaluable), patients (80 mg (N 9)) | NE (Not Evaluable), patients (80 mg (N 9)) | BOR Complete Response, patients (80 mg (n = 8)) | CR (Complete Response), patients (100 mg (N 6)) | Confirmed CR (Complete Response), patients (100 mg (N 6)) | Confirmed PD (Progressive Disease), patients (100 mg (N 6)) | PD (Progressive Disease), patients (100 mg (N 6)) | CR (Complete Response), patients (140 mg (N 6)) | Confirmed CR (Complete Response), patients (140 mg (N 6)) | Confirmed Objective Response (CR + PR) Rate, patients (140 mg (N 6)) | Confirmed PR (Partial Response), patients (140 mg (N 6)) | Objective Response (CR + PR) Rate, patients (140 mg (N 6)) | PR (Partial Response), patients (140 mg (N 6)) | BOR Complete Response, patients (140 mg (n = 1)) | BOR Partial Response, patients (140 mg (n = 1))
2: Confirmed PD (Progressive Disease), patients (25 mg (N 4)) | PD (Progressive Disease), patients (25 mg (N 4)) | BOR Progressive Disease, patients (25 mg (n = 2)) | Confirmed PD (Progressive Disease), patients (50 mg (N 5)) | PD (Progressive Disease), patients (50 mg (N 5)) | BOR Progressive Disease, patients (50 mg (n = 5)) | Objective Response (CR + PR) Rate, patients (80 mg (N 9)) | PR (Partial Response), patients (80 mg (N 9)) | Confirmed NE (Not Evaluable), patients (100 mg (N 6)) | NE (Not Evaluable), patients (100 mg (N 6)) | Confirmed PD (Progressive Disease), patients (140 mg (N 6)) | PD (Progressive Disease), patients (140 mg (N 6))
50.0%: Confirmed PD (Progressive Disease), % of patients (25 mg (N 4)) | PD (Progressive Disease), % of patients (25 mg (N 4)) | Confirmed SD (Stable Disease), % of patients (100 mg (N 6)) | Confirmed Disease Control (PR + PR + SD) Rate, % (140 mg (N 6)) | Confirmed SD (Stable Disease), % of patients (140 mg (N 6)) | Disease Control (PR + PR + SD) Rate, % (140 mg (N 6))
25.0%: Confirmed Disease Control (PR + PR + SD) Rate, % (25 mg (N 4)) | Confirmed NE (Not Evaluable), % of patients (25 mg (N 4)) | Confirmed SD (Stable Disease), % of patients (25 mg (N 4)) | Disease Control (PR + PR + SD) Rate, % (25 mg (N 4)) | NE (Not Evaluable), % of patients (25 mg (N 4))
1: Confirmed Disease Control (PR + PR + SD) Rate, patients (25 mg (N 4)) | Confirmed NE (Not Evaluable), patients (25 mg (N 4)) | Confirmed SD (Stable Disease), patients (25 mg (N 4)) | Disease Control (PR + PR + SD) Rate, patients (25 mg (N 4)) | NE (Not Evaluable), patients (25 mg (N 4)) | Confirmed Objective Response (CR + PR) Rate, patients (80 mg (N 9)) | Confirmed PD (Progressive Disease), patients (80 mg (N 9)) | Confirmed PR (Partial Response), patients (80 mg (N 9)) | PD (Progressive Disease), patients (80 mg (N 9)) | BOR Progressive Disease, patients (80 mg (n = 8)) | Confirmed Objective Response (CR + PR) Rate, patients (100 mg (N 6)) | Confirmed PR (Partial Response), patients (100 mg (N 6)) | Objective Response (CR + PR) Rate, patients (100 mg (N 6)) | PR (Partial Response), patients (100 mg (N 6)) | Confirmed NE (Not Evaluable), patients (140 mg (N 6)) | NE (Not Evaluable), patients (140 mg (N 6)) | BOR Progressive Disease, patients (140 mg (n = 1))
3: Confirmed Disease Control (PR + PR + SD) Rate, patients (50 mg (N 5)) | Confirmed SD (Stable Disease), patients (50 mg (N 5)) | Disease Control (PR + PR + SD) Rate, patients (50 mg (N 5)) | BOR Stable Disease, patients (50 mg (n = 5)) | Confirmed SD (Stable Disease), patients (100 mg (N 6)) | Confirmed Disease Control (PR + PR + SD) Rate, patients (140 mg (N 6)) | Confirmed SD (Stable Disease), patients (140 mg (N 6)) | Disease Control (PR + PR + SD) Rate, patients (140 mg (N 6))
4: Confirmed Disease Control (PR + PR + SD) Rate, patients (100 mg (N 6)) | Disease Control (PR + PR + SD) Rate, patients (100 mg (N 6))
(12.5): BOR Progressive Disease, (percent) (80 mg (n = 8))
(100): BOR Progressive Disease, (percent) (25 mg (n = 2)) | BOR Progressive Disease, (percent) (140 mg (n = 1))
77.8%: Confirmed SD (Stable Disease), % of patients (80 mg (N 9))
(0): BOR Complete Response, (percent) (25 mg (n = 2)) | BOR Partial Response, (percent) (25 mg (n = 2)) | BOR Stable Disease, (percent) (25 mg (n = 2)) | BOR Complete Response, (percent) (50 mg (n = 5)) | BOR Partial Response, (percent) (50 mg (n = 5)) | BOR Complete Response, (percent) (80 mg (n = 8)) | BOR Complete Response, (percent) (140 mg (n = 1)) | BOR Partial Response, (percent) (140 mg (n = 1))
8: Confirmed Disease Control (PR + PR + SD) Rate, patients (80 mg (N 9)) | Disease Control (PR + PR + SD) Rate, patients (80 mg (N 9))
